Assay results as given in US6608070B1, “2,3-substituted indole compounds as anti-inflammatory and analgesic agents” (priority 1999, dated 2003).
Where a name gives a salt, the structure may show the parent alone.

Row | melting point | SMILES
1 | 189 to 190 °C | O=C(O)Cc1c(C(=O)c2ccc(Cl)cc2)[nH]c2cc(Cl)ccc12 (as salt: malonate) [Example 9, [6-Chloro-2-(4-chlorobenzoyl)-1H-indol-3-yl]acetic Acid]
2 | 208 °C | CCc1ccnc(C(=O)c2[nH]c3ccc(Cl)cc3c2CC(=O)O)c1F [Example 112, [5-Chloro-2-(4-ethyl-3-fluoropyridine-2-carbonyl)-1H-indol-3-yl]acetic Acid]
3 | 165.7 °C | Cc1ccnc(C(=O)c2[nH]c3ccc(Cl)cc3c2CC(=O)NCCN)c1 [Example 272, [5-Chloro-2-(4-methylpyridine-2-carbonyl)-1H-indol-3-yl]-N-(2-aminoethyl)acetamide]
4 | 210 to 212 °C | O=C(O)Cc1c(C(=O)c2cc(CO)ccn2)[nH]c2cc(Cl)ccc12 [Example 96, [6-Chloro-2-[4-(hydroxymethyl)pyridine-2-carbonyl]-1H-indol-3-yl]acetic Acid]
5 | 212 to 213 °C | COCc1ccoc1C(=O)c1[nH]c2cc(Cl)ccc2c1CC(=O)O [Example 240, [6-Chloro-2-[3-methoxymethyl-2-furoyl]-1H-indol-3-yl]acetic Acid]
6 | 227 to 229 °C | Cc1cc(C(=O)c2[nH]c3cc(Cl)ccc3c2CC(=O)O)no1 [Example 227, [6-Chloro-2-(5-methylisoxazole-3-carbonyl)-1H-indol-3-yl]acetic Acid]
7 | 229 to 230 °C | Cc1nnsc1C(=O)c1[nH]c2ccc(Cl)cc2c1CC(=O)O [Example 229, [5-Chloro-2-(4-methyl-1,2,3-thiadiazole-5-carbonyl)-1H-indol-3-yl]acetic Acid]
8 | 256 to 257 °C | O=C(O)Cc1c(C(=O)c2ccncc2)[nH]c2cc(Cl)ccc12 [Example 94, [6-Chloro-2-(pyridine-4-carbonyl)-1H-indol-3-yl]acetic Acid]
9 | 225 to 226 °C | Cc1cccc(C(=O)c2[nH]c3ccc(Cl)cc3c2CC(=O)O)n1 [Example 38, [5-Chloro-2-(6-methylpyridine-2-carbonyl)-1H-indol-3-yl]acetic Acid]
10 | 235 to 238 °C | Cc1ccc(C(=O)c2[nH]c3cc(Cl)ccc3c2CC(=O)O)nc1 [Example 32, [6-Chloro-2-(5-methylpyridine-2-carbonyl)-1H-indol-3-yl]acetic Acid]
11 | 181 to 183 °C | O=C(O)Cc1c(C(=O)c2ccc(Cl)cc2)[nH]c2cc(Cl)ccc12 [Example 9, [6-Chloro-2-(4-chlorobenzoyl)-1H-indol-3-yl]acetic Acid]
12 | 215 to 216 °C (dec.) | CCc1ccnc(C(=O)c2[nH]c3cc(Cl)ccc3c2CC(=O)O)c1 [Example 58, [6-Chloro-2-(4-ethylpyridine-2-carbonyl)-1H-indol-3-yl]acetic Acid]
13 | 242 to 244 °C | O=C(O)Cc1c(C(=O)c2ccc(Cl)cn2)[nH]c2cc(Cl)ccc12 [Example 88, [6-Chloro-2-(5-chloropyridine-2-carbonyl)-1H-indol-3-yl]acetic Acid]
14 | 233 to 235 °C | Cc1cc(C)nc(C(=O)c2[nH]c3ccc(Cl)cc3c2CC(=O)O)c1 [Example 120, [5-Chloro-2-(4,6-dimethylpyridine-2-carbonyl)-1H-indol-3-yl]acetic Acid]
15 | 213 °C (dec.) | COc1ccnc(C(=O)c2[nH]c3cc(Cl)ccc3c2CC(=O)O)c1 [Example 106, [6-Chloro-2-(4-methoxypyridine-2-carbonyl)-1H-indol-3-yl]acetic Acid]
